Patent US6362225B1 (priority 1999, dated 2002)

Legend:
[1] = tested on: upper respiratory infections settled in the lungs; assay: Lysine solution by nebulizer directly into the lungs; format: in vivo, human; conditions: one test subject
Source text: Often upper respiratory infections settle in the lungs and can cause prolonged discomfort, coughing and heavy chest congestion.

herpes simplex II = assay: Lysine nasal spray for herpes outbreaks; format: in vivo, human
cold virus [2] = assay: Nasal spray of lysine after exposure to persons with severe colds; format: in vivo, human; conditions: nasal spray continued for at least three days after exposure to persons with severe colds
Source text: The administration of lysine in the form of a nasal spray was used by other test subjects after being exposed to persons with severe colds, that is persons who were frequently coughing and sneezing.

canker sore = assay: Lysine solution applied directly to canker sores and cold sores; format: in vivo, human
Source text: Another test subject with a long history of canker sore outbreaks reported that once one canker sore appeared several more usually followed within a day or two. These sores were quite painful and often lasted from five to ten days. The subject was given the lysine solution and told to apply it directly to the lesion. […] The application was repeated every three or four hours until the canker sore was completely healed. […] Since this subject has been using the lysine solution the outbreaks of canker sores are infrequent and are healed very quickly.
As shown above, the use of lysine by targeting the infected areas may shorten the duration of the outbreak and may even prevent illnesses such as colds and sore throats if used directly after contact with an infected person or at the onset of symptoms. Essentially the use of the lysine solution or composition in the nose, mouth and/or lungs, or other specific areas of the body may represent a topical application of lysine to the infected area. Thus, the duration of an infection may be considerably lessened by applying lysine to that infected area.

sore throat = assay: Lysine nasal inhalation or throat spray for sore throat; format: in vivo, human; conditions: one test subject
Source text: A test subject used nasal inhalation of lysine every three hours to treat a sore throat and reported relief after one day.
Another test subject who has suffered from throat infections for many years used the lysine spray directly into the throat at the first sign of soreness on at least four occassions. The treatment was repeated every three to four hours for two days.

cold virus [3] = assay: Nasal spray of lysine solution in test subjects with colds or flu; format: in vivo, human
[4] = cited from earlier work
[5] = ten test subjects, cold virus, […], 3500 mg lysine in 1.5 oz. 0.65% saline, spray twice in each nostril every three hours

Cl.NCCCC[C@H](N)C(=O)O [lysine, L-lysine monohydrochloride]
Onset of lessening of lung symptoms [1]: lessened almost immediately | Time until symptoms cleared up completely [1]: one to three | Effect on herpes simplex II outbreak (herpes simplex II; one test subject with twenty year history, nasal spray every three hours for one day): stopped the outbreak | Response of genital herpes outbreaks (herpes simplex II; one test subject, nasal spray plus lysine tablets, compared with tablets alone): responded much faster than with the tablets alone | Prevention of herpes outbreaks (herpes simplex II; same test subject, regular use of the nasal spray): prevented herpes outbreaks to the point of almost eliminating them altogether | Cold symptoms after exposure (cold virus [2]): never felt cold symptoms at all | Secondary canker sore lesions (canker sore; one test subject, application repeated every three or four hours): no secondary lesions developed | Time until canker sore completely healed (canker sore; one test subject, application repeated every three or four hours, sores previously lasted five to ten days): three to five | Pain associated with canker sore (canker sore; one test subject, solution applied directly to the lesion): alleviated as soon as the solution was applied | Healing response of cold sores and canker sores (canker sore; solution applied directly, in contrast to ingestion of lysine tablets alone): fast healing response | Time to relief of sore throat (sore throat; nasal inhalation every three hours): one | Development of full sore throat (sore throat; spray directly into the throat at first sign of soreness, every three to four hours for two days, at least four occasions): never occurred | Effectiveness of treatment at lengthened intervals (cold virus [3]; colds or flu, intervals lengthened to six or more hours, compared with one to four hours): considerably less effective | Number of subjects reporting relief obtained in 1 day (cold virus [3]; [5]): 5 | Number of subjects reporting relief obtained in 2 days (cold virus [3]; [5]): 3 | Number of subjects reporting relief obtained in 3 days (cold virus [3]; [5]): 2 | Toxic levels ([4]; general statement): No toxic levels | Adverse side effects of ingested lysine ([4]; high doses ingested as tablets): gastric distress
